Reference: patent US20240390335A1, “PHARMACEUTICAL COMPOSITION CONTAINING BETA-LACTAM COMPOUND AND USE THEREOF” (priority 2021, published 2024)
Like-named read-outs stand apart in the source and are kept apart here.

What was measured:
Test in all cases: MIC assay of individual compounds (microdilution, CLSI/NCCLS)
Assay type in all cases: cell-based
Settings in all cases: individual compound, read-out: MIC
[1] = test system: Escherichia coli
[2] = test system: Enterobacter cloacae
[3] = test system: Pseudomonas aeruginosa

Compound: CC1(C)[C@H](NC(=O)/C(=N\OC2(C(=O)O)CC2)c2csc(N)n2)C(=O)N1OS(=O)(=O)O [Compound of formula (I-1)]
- MIC ([1]; ATCC2469, Escherichia coli ATCC 2469): 1 µg/mL
- MIC ([1]; Escherichia coli CCPM(A)-P-071301): 2 µg/mL
- MIC ([2]; ATCC2468, Enterobacter cloacae ATCC 2468): 2 µg/mL
- MIC ([2]; Enterobacter cloacae CCPM(A)-P-111719): 1 µg/mL
- MIC ([3]; Pseudomonas aeruginosa ATCC27853): 16 µg/mL
- MIC ([3]; Pseudomonas aeruginosa CCPM(A)-P-091626(CRPA)): 32 µg/mL
- MIC ([3]; Pseudomonas aeruginosa PAO1(CCPM(A)-P-09000032)): 16 µg/mL
